Assay results as given in patent US5906922A, “Delivery of nucleic acids” (Commonwealth Scientific and Industrial Research Organisation, priority 1994, dated 1999).
Read-outs that look alike come from different tables or passages of the source. Where a SMILES comes first, the peptide text is derived from it. The star is where a group is joined. NHC(CH2OLauroyl)3 = CCCCCCCCCCCC(=O)OCC(COC(=O)CCCCCCCCCCC)(COC(=O)CCCCCCCCCCC)N*

Experiments:
Cos 1 cells [1] = experiment: β-gal microtitre plate transfection assay, Cos 1; format: cell-based, African Green Monkey
How it was run: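 Cos 1 cells were transfected with β-galactosidase plasmids (mouse PGK or SV40 early promoter) across varied lipid/DNA ratios in microtitre format. The lipid/DNA ratio giving maximal expression was recorded. Viability was measured with alamar blue or MTS, where higher OD means greater viability.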

CHO cells [2] = experiment: β-gal microtitre plate transfection assay, CHO; format: cell-based, Chinese Hamster; details: Table 3, CHO
Description: For experiment "c", a plasmid pPGKlaczNLS encoding β-galactosidase under the control of the mouse PGK promoter (kind gift from G.Hannan) or pSVGAL which utilises the SV40 early promoter (Sleigh, M. J. and Lockett, T. J. (1985). EMBO J. 4:3831-3837),was transfected. This experiment and assay were modified from Feigner et al J. Biol Chem. 269(4) 2550-2561 1994. This protocol allows the simultaneous assessment of 72 different combinations and concentrations of DNA and test agent in a microtitre tray. […] Cytotoxicity was assessed using alamar blue, and a sample graph is shown for experiment a.
Each of these compounds was tested for transfection ability and cytotoxicity on standard cell lines using standard conditions as described above.
(§1) The ratio of [lipid]/[DNA] at which that maximum was achieved is shown in brackets for the two different cell types in the following order; (Cos 1) (CHO). Experiments shown were carried out in Cos 1 cells, as described above. Viability was measured with the dye alamar blue . # Denotes compounds tested in a separate experiment. * Viability in this experiment was determined with MTS. OD is a measure of relative viability of the cells exposed to the different agents, and as with alamar blue, a higher value indicates greater cell viability.

Cos 1 cells [3] = format: cell-based, African Green Monkey
How it was run: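 Relative viability of Cos 1 cells exposed to lipid/DNA agents was read as MTS optical density; higher OD means greater viability. Some points came from separate experiments.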

Cos 1 cells [4] = format: cell-based, African Green Monkey; remark: listed apart in the source
How it was run: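 Cytotoxicity of transfection agents (lipid/DNA combinations, β-galactosidase plasmid under PGK or SV40 early promoter) assessed in parallel with transfection. Viability read with alamar blue or, in some runs, MTS OD; higher signal means greater relative viability.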

CHO cells [5] = format: cell-based, Chinese Hamster
Experimental: (LEGEND--FIGS. 7, 8 and 9; none; no agent used with plasmid DNA, rb/blank; reagent blank, number following description of compound indicates no. μl of 2 mM stock (diluted with water). 7b: 100% cell survival was taken from dishes which were "mock transfected" with no DNA or transfection agent. 0% viability was assayed in the absence of cells. Viability was assessed using the dye alamar blue.)
Relative levels of cytotoxicity caused by the different agents were compared during the experiment using the dye "Alamar Blue" (Alamar, Sacramento Calif.).
as §1

Hela cells [6] = experiment: β-gal plate transfection assay, Hela; format: cell-based, Human; details: 48 hours
Experimental: (§5) Hela cells were seeded in place of Cosl or CHO cells in DME+10% FCS at a density of 2×10^4 /well and transfected with pPGKlaczNLS as described above. At 48 hours, toxicity was determined by alamar blue and the cells processed for the β-gal assay.

CHO cells [7] = experiment: Oligonucleotide transfection (18-mer fluoresceinated phosphorothioate), CHO; format: cell-based, Chinese Hamster; details: 3 hours
Experimental: (§2) An 18-mer 5'-fluoresceinated phosphorothioate oligonucleotide was transfected into CHO cells. A comparison was made between the ability of K3C7ATL3, K3ATL3 and no-agent, to transfect the oligonucleotide into the cells. The oligonucleotide was serially diluted from 121.2 μM nucleotide, to 60.6 and 30.3 μM nucleotide. The test lipopeptides were serially diluted from 84 μM , to 42 and 21 μM. These dilutions were combined in a 3×3 matrix resulting in concentrations half that described. That is, the top dilution of oligonucleotide became 60.6 μM nucleotide (3.37 μM 18-mer oligonucleotide) and lipopeptide 42 μM. The mix was allowed to incubate for 10 min at room temperature and then overlayed on CHO cells (seeded at 1×10^4 /well the previous day). washed free of serum with DDME, in a total volume of 100 μl. Wells receiving mix with no test agent had the three different concentrations of oligonucleotide overlayed under the same conditions.
(§3) After 3 hours of incubation under standard conditions of 37° C. and 5% CO2, the mix was removed and replaced with 50 μl of DDME. The cells were viewed live under the confocal microscope. The level of fluorescence was so high that the pinhole aperture for the LASER on the BioRad MRC 500 confocal microscope, was shut down to minimum. All images were then collected on the same settings for a quantitative comparison.
After confocal analysis, 100 μl of EMEM+10% FCS was added back to the wells and cells were incubated under standard conditions overnight. Cells were re-examined for fluorescence.

in vitro = format: cell-based, Chinese Hamster; details: hamster, cho cells
Experimental: as §2, §3

leg muscle = experiment: In vivo transfection (pGFP-N1, intramuscular); set-up: species or system hairless mouse; details: 10 μg pGFP-N1, 24 hours
Experimental: The plasmid pGFP-N1 (Clontech) encoding the Green Fluorescent Protein, was diluted 10 μg (in 10 μl) into 20 μl 5% dextrose in water and then combined with 2.1 μl of 10 mM K3ATL3 (10% DMSO) in 27.9 μl of 5% dextrose in water. After 10 min incubation at room temperature the mixture was injected into the leg muscle of a hairless mouse. The mouse was sacrificed after 24 hours and the muscle snap frozen on dry ice. Frozen sections of the tissue were made and analysed under the confocal microscope for fluorescence.

cells [8] = experiment: β-gal reporter transfection, "y" linker non-standard amino acids; format: cell-based; details: K3 "y" TL3 compounds
Experimental: Peptide/fatty acyl conjugates were synthesized using the non-standard amino acids amino butyric (C3), amino caproic (C5) and amino caprylic (C7) acids as the linker groups, a tri-lysine nucleic acid binding domain and laurate for the three fatty acyl groups. In these new conjugates the DNA binding and tris/fatty acyl moieties were separated by an extra 3, 5 and 7 carbon bond lengths respectively when compared with the prototype molecule. These compounds were then tested in the standard manner described above to determine their relative capacity to transfect cells.
K3 "y" TL3 compounds, where y=C3, C5, C7, A, L, G were compared for transfection efficiency to each other and the commercial agent Lipofectamine using the standard β-gal reporter gene system described above.

cells [9] = experiment: β-gal plate assay of unformulated mixtures of lipopeptides; format: cell-based; details: previously determined
Experimental: The optimal level of transfection achieved using the compound K3ATL3 had been previously determined as requiring ^- 5 μM K3ATL3. K3ATL3 was mixed with each of K3ATL1, K3ATL2, K3ATM3, K3ATP3 and K3ATC3 to give a total concentration of lipid of 5 μM in 100 μl at ratios of 0:5, 1:4, 2:3, 3:2, 4:1 and 5:0. K3ATM3 was similarly mixed with K3ATM1, K3ATM2 and K3ATP3. Each of the lipid mixtures was combined with a constant amount of pSVGAL DNA 0.5 μg/well and transfection allowed to proceed normally.
This was further tested by making a 4:1 molar mix of the two lipopeptides K3ATL3 and K3ATM3 and testing them in a standard plate assay which involved doubling dilutions of both the lipopeptide and DNA concentration. This was compared to expression achieved with using the pure compound K3ATL3 under the same conditions.

Hela cells [10] = test system: Hela cells
Experimental: as §5

PC3 = experiment: Transfection of PC3 cells; format: cell-based, human; details: PC3, FIG. 22a
Description: (§4) Increasing the length of the linker portion of peptide/fatty acyl conjugates dramatically improves their transfection properties both in overall levels of reporter gene expression and also in the proportion of cells transfected. It is particularly noticable that peak levels of transfection are achieved using these reagents at a relatively low level of toxicity. […] This improved capacity of conjugates with longer linkers to promote transfection appears to be independent of cell type.

Jurkat T cell line = experiment: Transfection of Jurkat cells; format: cell-based, Human; details: FIG. 22b
Description: as §4

[11] = Electron microscopy of formulated and unformulated compounds; format: physicochemical; details: rotary shadowed
Experimental: Solutions of formulated and unformulated compounds were analysed for potential membrane-like structure. In separate experiments the following samples were analysed:
a: Negatively stained samples of formulated compounds K3ATP2:DOPE, DOPE and the unformulated compounds K3C7ATL3 and Lipofectamine.
b: Rotary shadowed samples of K3C7ATL3 and Lipofectamine mixed with two ratios of nucleotide (plasmid).
Stock samples of liposomes at 2 mM, were diluted 1 in 10 with filtered distilled water, and mixed 1:1 with filtered negative stain (Ammonium Molybdate 2%, pH 6.5) and spread onto carbon-formvar coated copper/rhodium 200 mesh electron microscope grids, and examined in a Jeol JEM 100CX electron microscope at 60 kV at magnifications of between 33 k and 100 k.
Ratios of 0.69, and 0.25, of liposome:1 mole DNA nucleotides were diluted in water and mixed for 10 min at room temperature, spread onto carbon-formvar coated grids and rotary metal-shadowed with platinum-palladium (60:40) evaporated at an angle of 7° and examined in the electron microscope at 60 kV at magnifications between 26 k and 66 k.

[12] = [nucleotide] 15.15 μM, [test agent] 10.5 μM
[13] = [nucleotide] 15.15 μM, [test agent] 21 μM
[14] = [nucleotide] 15.15 μM, [test agent] 42 μM
[15] = [nucleotide] 30.3 μM, [test agent] 10.5 μM, *less strongly fluorescing for K3ATL3
[16] = [nucleotide] 30.3 μM, [test agent] 21 μM
[17] = [nucleotide] 30.3 μM, [test agent] 42 μM
[18] = [nucleotide] 60.6 μM, [test agent] 10.5 μM, *less strongly fluorescing for K3ATL3
[19] = [nucleotide] 60.6 μM, [test agent] 21 μM
[20] = [nucleotide] 60.6 μM, [test agent] 42 μM

SMILES: CCCCCCCCCCCC(=O)OCC(COC(=O)CCCCCCCCCCC)(COC(=O)CCCCCCCCCCC)NC(=O)[C@H](C)NC(=O)[C@H](CCCCN)NC(=O)[C@H](CCCCN)NC(=O)[C@@H](N)CCCCN [K3ATL3] (H-KKKA-{NHC(CH2OLauroyl)3})
- transfection, linkers A, L and G compared (Cos 1 cells [1]; "y" linker experiment c, Cos 1, trilysine trilaurate): superior in achieving transfection
- ratio [lipid]/[DNA] at which maximum was achieved (Cos 1 cells [1]; Table 2, Cos 1): 1.39
- units β-gal (Cos 1 cells [1]; Table 2, Cos 1, highest reading of 72 conditions): 4.95 × 10^-4 units
- β-gal (Cos 1) (Cos 1 cells [1]; Table 3, Cos 1, # tested in a separate experiment): 4.95 × 10^-4
- β-gal (Cos 1) (Cos 1 cells [1]; Table 3, Cos 1, highest reading of 72 conditions): 3.02 × 10^-4
- ratio [lipid]/[DNA] at which maximum was achieved (CHO cells [2]): .69
- β-gal (CHO) (CHO cells [2]; highest reading of 72 conditions): 7.89 × 10^-4
- MTS OD490-655 (Cos 1 cells [3]): 1.363
- Viability (Cos 1) (Cos 1 cells [3]): 1.36
- Viability (Cos 1) (Cos 1 cells [4]): 0.095
- Viability (CHO) (CHO cells [5]): 0.027
- transfection ability, chain length C10 to C16 (Hela cells [6]): peak transfection efficiency at C12
- % cells fluorescing (CHO cells [7]; [12]): 100%
- % cells fluorescing (CHO cells [7]; [13]): 100%
- % cells fluorescing (CHO cells [7]; [14]): 100%
- % cells fluorescing (CHO cells [7]; [15]): 100%
- % cells fluorescing (CHO cells [7]; [16]): 100%
- % cells fluorescing (CHO cells [7]; [17]): 100%
- % cells fluorescing (CHO cells [7]; [18]): 100%
- % cells fluorescing (CHO cells [7]; [19]): 100%
- % cells fluorescing (CHO cells [7]; [20]): 100%
- cytotoxicity at 3 h, 42 µM (in vitro): > 90%
- GFP fluorescence in motor end-plates (leg muscle): very strong fluorescence was seen in the motor end-plates
- GFP fluorescence in muscle cells (leg muscle): Punctate fluorescence was observed in the cytoplasm of muscle cells
- transfection efficiency compared to Lipofectamine (cells [8]): more efficient at transfection than Lipofectamine
- concentration required for optimal transfection (cells [9]): ~5 µM
- cell viability (Hela cells [10]): peak level of cell viability

SMILES: CCCCCCCCCCCC(=O)OCC(COC(=O)CCCCCCCCCCC)(COC(=O)CCCCCCCCCCC)NC(=O)CCCCCCCNC(=O)[C@H](CCCCN)NC(=O)[C@H](CCCCN)NC(=O)[C@@H](N)CCCCN [K3C7TL3]
- transfection compared to lipofectamine (PC3): more effective transfection reagent than lipofectamine
- transfection compared to lipofectamine (Jurkat T cell line): more effective transfection reagent than lipofectamine
- % cells fluorescing (CHO cells [7]; [12]): 100%
- % cells fluorescing (CHO cells [7]; [13]): 100%
- % cells fluorescing (CHO cells [7]; [14]): 100%
- % cells fluorescing (CHO cells [7]; [15]): 100%
- % cells fluorescing (CHO cells [7]; [16]): 100%
- % cells fluorescing (CHO cells [7]; [17]): 100%
- % cells fluorescing (CHO cells [7]; [18]): 100%
- % cells fluorescing (CHO cells [7]; [19]): 100%
- % cells fluorescing (CHO cells [7]; [20]): 100%
- cytotoxicity at 3 h, 42 µM (in vitro): > 90%
- DNA incorporation ([11]; lipopeptide : nucleotide ratio 0.69 (optimal)): most of the DNA was incorporated into collections of liposomes
- DNA free in solution ([11]; ratio 0.25:1 (suboptimal)): a large amount of DNA was free in the solution
- transfection efficiency compared to Lipofectamine (cells [8]): more efficient at transfection than Lipofectamine
- transfection efficiency compared to standard single amino acid linker (cells [8]): dramatically more efficient than compounds using the standard single amino acid linker
